The text below walks through data of DBAASP.

Values after ≈ are worked out from the molar mass of the structure shown.

Test systems include Bacillus subtilis 168; Escherichia coli B; Pseudomonas aeruginosa; Staphylococcus aureus 1; Staphylococcus aureus; Escherichia coli MG1655; Escherichia coli BL21AI.
Common to all, as to assay: ≥ marks a high value that may be exact or a test limit, other limits are often not marked, values filed in µg/mL are converted to µM
The test system of experiment [1] is Candida albicans F7-39/IDE99.
Experiment [2] deals with Micrococcus luteus CCM 144.
In experiment [3] the test system is Pseudomonas aeruginosa ATCC 27853.
Experiment [4] concerns Staphylococcus aureus ATCC 43300.
Experiment [5] has as its system Staphylococcus epidermidis.
Experiment [6] relates to Fusarium graminearum PH-1.
For experiment [7], the system named is Klebsiella pneumoniae ATCC 700603.
Experiment [8] deals with Pseudomonas aeruginosa ATCC 10145.
The subject of experiment [9] is Staphylococcus aureus ATCC 25923.
For experiment [10], the system named is Micrococcus luteus ATCC 10240.
Experiment [11] deals with Cronobacter muytjensii ATCC 51329.
Experiment [12] deals with Cronobacter sakazakii ATCC BAA-894.
Experiment [13] relates to Cronobacter sakazakii DPC 6440.
In experiment [14] the test system is Cronobacter sakazakii DSM 4485.
Experiment [15] concerns Escherichia coli NCIMB 11843.
Experiment [16] concerns Klebsiella pneumoniae NCIMB 13218.
Experiment [17] deals with Pseudomonas fluorescens NCIMB 9046.
Experiment [18] concerns Salmonella enterica subsp. enterica serovar Typhimurium LT2.
Experiment [19] deals with Staphylococcus aureus NCTC 8325-4.
Experiment [20] deals with Staphylococcus aureus Newman.
The subject of experiment [21] is Staphylococcus aureus RF122.
The test system of experiment [22] is Staphylococcus aureus RN4220.
Experiment [23] has as its system Staphylococcus aureus SA113.

Usually MIC stands for the lowest concentration that inhibits growth of the organism. Higher therefore signals a need for much substance. For `CC[C@H](C)[C@H](NC(=O)CN)C(=O)N[C@@H](CC(C)C)C(=O)N[C@@H](CO)C(=O)N[C@@H](CCCCN)C(=O)N[C@@H](CC(C)C)C(=O)N[C@@H](CC(C)C)C(=O)N[C@@H](CCCCN)C(=O)N[C@@H](CCCCN)C(=O)N[C@@H](CC(C)C)C(=O)N[C@@H](CCCCN)C(=O)N[C@@H](CCCCN)C(=O)N[C@H](C(=O)N[C@H](C(=O)N[C@@H](C)C(=O)N[C@@H](CCCCN)C(N)=O)[C@@H](C)CC)[C@@H](C)CC` [GILSKLLKKLKKIIAK], the MIC against Bacillus subtilis 168 is 7 µM (≈ 12.6 µg/mL); in experiment [1] it was ≥ 45 µM; in the experiment with Escherichia coli B, 18 µM (≈ 32.3 µg/mL); in [2], 3 µM (≈ 5.38 µg/mL); in [3], 4.5 µM (≈ 8.07 µg/mL); with Pseudomonas aeruginosa, 8.5 µM (≈ 15.2 µg/mL). For the same compound, the MIC against Staphylococcus aureus 1 came to 5.9 µM (≈ 10.6 µg/mL); in [4], 23 µM (≈ 41.2 µg/mL); with Staphylococcus aureus, 10 µM (≈ 17.9 µg/mL); in [5], 1.8 µM (≈ 3.23 µg/mL).

For `CC[C@H](C)[C@H](NC(=O)CN)C(=O)N[C@@H](CC(C)C)C(=O)N[C@@H](CO)C(=O)N[C@@H](CO)C(=O)N[C@@H](CC(C)C)C(=O)N[C@@H](CC(C)C)C(=O)N[C@@H](CCCCN)C(=O)N[C@@H](CCCCN)C(=O)N[C@@H](CC(C)C)C(=O)N[C@@H](CCCCN)C(=O)N[C@@H](CCCCN)C(=O)N[C@@H](Cc1c[nH]c2ccccc12)C(=O)N[C@H](C(=O)N[C@@H](C)C(=O)N[C@@H](CCCCN)C(N)=O)[C@@H](C)CC` [GILSSLLKKLKKWIAK], the MIC against Bacillus subtilis 168 came out at 7 µM (≈ 12.8 µg/mL); in experiment [1] it was 16 µM (≈ 29.2 µg/mL); in the experiment with Escherichia coli B it was 4 µM (≈ 7.3 µg/mL); in [2], 3 µM (≈ 5.48 µg/mL); in experiment [3], 8 µM (≈ 14.6 µg/mL); in the experiment with Pseudomonas aeruginosa, 21 µM (≈ 38.3 µg/mL). In addition, the MIC in the experiment on Staphylococcus aureus 1 turned out to be 2.6 µM (≈ 4.75 µg/mL); in experiment [4], 8 µM (≈ 14.6 µg/mL); with Staphylococcus aureus it was 4 µM (≈ 7.3 µg/mL); in experiment [5], 1.6 µM (≈ 2.92 µg/mL).

Consider `CC[C@H](C)[C@H](NC(=O)CN)C(=O)N[C@@H](CCSC)C(=O)N[C@@H](CO)C(=O)N[C@@H](CO)C(=O)N[C@@H](CC(C)C)C(=O)N[C@@H](CCSC)C(=O)N[C@@H](CCCCN)C(=O)N[C@@H](CCCCN)C(=O)N[C@@H](CC(C)C)C(=O)N[C@@H](CCCCN)C(=O)N[C@@H](CCCCN)C(=O)N[C@H](C(=O)N[C@H](C(=O)N[C@@H](C)C(=O)N[C@@H](CCCCN)C(N)=O)[C@@H](C)CC)[C@@H](C)CC` [GIMSSLMKKLKKIIAK], for which the minimum inhibitory concentration (MIC) in the experiment with Bacillus subtilis 168 was determined as 7 µM (≈ 12.5 µg/mL); in experiment [1] it was 5.2 µM (≈ 9.3 µg/mL); in the experiment with Escherichia coli B, 9 µM (≈ 16.1 µg/mL); in experiment [2], 3 µM (≈ 5.37 µg/mL); in experiment [3], 5 µM (≈ 8.94 µg/mL); with Pseudomonas aeruginosa, 7.4 µM (≈ 13.2 µg/mL). For the same compound, the MIC amounted to 7.6 µM (≈ 13.6 µg/mL) against Staphylococcus aureus 1, 32 µM (≈ 57.2 µg/mL) in experiment [4], 23 µM (≈ 41.1 µg/mL) against Staphylococcus aureus and 1.9 µM (≈ 3.4 µg/mL) in experiment [5].

Turning to `NCC(=O)N[C@@H](CCCN=C(N)N)C(=O)N[C@H]1CSSC[C@@H](C(=O)O)NC(=O)[C@H](CCCN=C(N)N)NC(=O)[C@H](Cc2ccccc2)NC(=O)[C@H](CC(=O)O)NC(=O)[C@H](CC(=O)O)NC(=O)[C@H](CCCN=C(N)N)NC1=O` [GRCRDDFRC], the MIC in experiment [6] was ≥ 192 µM.

`NCC(=O)N[C@@H](CCCN=C(N)N)C(=O)N[C@H]1CSSC[C@@H](C(=O)O)NC(=O)[C@H](CCCN=C(N)N)NC(=O)[C@H](CCCN=C(N)N)NC(=O)[C@H](CCCN=C(N)N)NC(=O)[C@H](Cc2ccccc2)NC(=O)CNC(=O)[C@H](CCCN=C(N)N)NC1=O` [GRCRGFRRRC] had an MIC in experiment [6] of 6 µM (≈ 7.59 µg/mL).

Regarding `CC(C)C[C@H](NC(=O)[C@H](Cc1c[nH]c2ccccc12)NC(=O)[C@H](Cc1cnc[nH]1)NC(=O)[C@H](CCCCN)NC(=O)[C@H](CC(C)C)NC(=O)[C@H](C)NC(=O)[C@H](CC(C)C)NC(=O)[C@H](CCCCN)NC(=O)CNC(=O)[C@@H](NC(=O)[C@@H](NC(=O)[C@H](CCCCN)NC(=O)[C@@H](NC(=O)[C@H](CCC(=O)O)NC(=O)[C@H](C)NC(=O)[C@H](CCCCN)NC(=O)[C@H](CCCCN)NC(=O)[C@H](CC(C)C)NC(=O)[C@H](CC(C)C)NC(=O)[C@@H](NC(=O)[C@H](CCCN=C(N)N)NC(=O)[C@H](Cc1ccc(O)cc1)NC(=O)CN)[C@@H](C)O)C(C)C)[C@@H](C)O)C(C)C)C(=O)O` [GYRTLLKKAEVKTVGKLALKHWL], the MIC was 15 µM (≈ 39.8 µg/mL) against Escherichia coli MG1655, > 15 µM in [7], 15 µM (≈ 39.8 µg/mL) in experiment [8] and 15 µM (≈ 39.8 µg/mL) in experiment [9].

With `C[C@H](NC(=O)[C@H](C)NC(=O)[C@H](CCCCN)NC(=O)[C@H](CCCCN)NC(=O)[C@H](C)NC(=O)[C@H](Cc1ccccc1)NC(=O)[C@H](CCCCN)NC(=O)[C@H](CCCCN)NC(=O)[C@H](C)NC(=O)[C@H](Cc1ccccc1)NC(=O)[C@H](CCCCN)NC(=O)[C@H](CCCCN)NC(=O)[C@H](C)NC(=O)[C@H](Cc1ccccc1)NC(=O)[C@@H](N)CCCCN)C(=O)N[C@@H](CCCCN)C(=O)O` [KFAKKFAKKFAKKAAK], the MIC in experiment [8] is ≥ 136 µM.

As for `C[C@H](NC(=O)CNC(=O)[C@@H](N)CCCN=C(N)N)C(=O)N[C@@H](CCCN=C(N)N)C(=O)N[C@@H](CCCN=C(N)N)C(=O)N[C@@H](CCCN=C(N)N)C(=O)O` [RGARRR], the minimal inhibitory concentration (MIC) in [6] was ≥ 96 µM.

On to `CC[C@H](C)[C@H](NC(=O)[C@H](CCCN=C(N)N)NC(=O)[C@H](CCCN=C(N)N)NC(=O)[C@@H]1CCCN1C(=O)[C@@H]1CCCN1C(=O)[C@H](CCCN=C(N)N)NC(=O)[C@@H]1CCCN1C(=O)[C@H](CCCN=C(N)N)NC(=O)[C@@H]1CCCN1C(=O)[C@H](CC(C)C)NC(=O)[C@H](Cc1ccc(O)cc1)NC(=O)[C@@H]1CCCN1C(=O)[C@@H]1CCCN1C(=O)[C@H](CCCCN)NC(=O)[C@H](CC(=O)O)NC(=O)[C@@H](N)C(C)C)C(=O)N[C@@H](Cc1ccc(O)cc1)C(=O)N[C@@H](CC(N)=O)C(=O)N[C@@H](C)C(N)=O` [VDKPPYLPRPRPPRRIYNA], for which the MIC against Escherichia coli BL21AI was determined as 13.9 µM (≈ 32 µg/mL); in [10], 6.94 µM (≈ 16 µg/mL).

As to `CC(C)C[C@H](NC(=O)[C@H](CC(C)C)NC(=O)[C@H](CC(N)=O)NC(=O)[C@H](CC(=O)O)NC(=O)[C@H](CC(N)=O)NC(=O)[C@H](CC(C)C)NC(=O)[C@@H](N)C(C)C)C(=O)N[C@@H](CCCN=C(N)N)C(=O)O` [VLNDNLLR], the MIC in [11], in experiment [12], in [13], in experiment [14], in experiment [15] and in experiment [16] was ≥ 2500 µM in each case. Further, the MIC in experiment [17], in experiment [18], in experiment [19], in experiment [20], in experiment [21] and in experiment [22] was ≥ 2500 µM in each case. The MIC in experiment [23] was ≥ 2500 µM.
